Patent US20230089368A1, “POLYAROMATIC UREA DERIVATIVES AND THEIR USE IN THE TREATMENT OF MUSCLE DISEASES” (ANAGENESIS BIOTECHNOLOGIES S.A.S., priority 2019, published 2023)
Counter-ions that a name gives are not always drawn.

What was measured:
[1] = system: muscle progenitors (hMP) from DMD hiPSC or WT hiPSC; assay: Myotube assay: myogenic activity (total myotube area per well); format: cell-based, human; conditions: Homo sapiens, 72 h; myotube assay, compounds incubated 3 days; read-out: MA (normalized Myotube Area, efficacy)
Summary of the method: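 DMD or WT hiPSC-derived muscle progenitors plated on collagen I in K5 medium with 5 μM Y-27632, treated with compound (1.5 nM–30 μM) for 3 days at 37° C. Cells were fixed, stained for alpha-actinin and imaged for total myotube area per well. EC50 and normalized myotube area (MA) taken from duplicate-averaged data.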

[2] = system: satellite-like cells (Pax7-positive cells) in hMP; assay: Myotube assay: Pax7-positive (satellite-like) cell quantification; format: cell-based, human; parameters: key to Pax7% (pool of Pax7-positive cells) / Pax7: −: Depletes the pool of cells, while positively affects the myotubes; +: Maintains or increases the pool of cells, with at least 1 of the highest concentration known to be cytotoxic; ++: Maintains or increases the pool of cells, without any toxicity; conditions: myotube assay, compounds incubated 3 days
Summary of the method: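 DMD hiPSC-derived muscle progenitors (hMP) proliferated 4 days, then plated on collagen I in K5 medium with 5 μM Y-27632. Compound added at 1.5 nM–30 μM for 3 days at 37° C, then cells fixed and immunostained. Pax7-positive cells counted as percentage of total nuclei, duplicates averaged.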

SMILES	Emax [1] [%]	Pax7% (pool of Pax7-positive cells) [2]
CSc1cc(Oc2ccnc3[nH]c(=O)cnc23)ccc1NC(=O)Nc1cc(C(C)(C)C)nn1-c1ccc(C#N)cc1 [(cc), 1-(3-(tert-butyl)-1-(4-cyanophenyl)-1H-pyrazol-5-yl)-3-(2-(methylthio)-4-((3-oxo-3,4-dihydropyrido[2,3-b]pyrazin-8-yl)oxy)phenyl)urea]	≥ 75	+
CSc1cc(Oc2ccnc3[nH]c(=O)cnc23)ccc1NC(=O)Nc1cc(C(C)(C)C)nn1-c1ccc(C)c(C)c1 [(cd), 1-(3-(tert-butyl)-1-(3,4-dimethylphenyl)-1H-pyrazol-5-yl)-3-(2-(methylthio)-4-((3-oxo-3,4-dihydropyrido[2,3-b]pyrazin-8-yl)oxy)phenyl)urea]	≥ 75	++
CSc1cc(Oc2ccnc3[nH]c(=O)cnc23)ccc1NC(=O)Nc1cc(C(C)(C)C)nn1-c1ccc(OCCN2CCCCC2)cc1 [(ce), 1-(3-(tert-butyl)-1-(4-(2-(piperidin-1-yl)ethoxy)phenyl)-1H-pyrazol-5-yl)-3-(2-(methylthio)-4-((3-oxo-3,4-dihydropyrido[2,3-b]pyrazin-8-yl)oxy)phenyl)urea]	≥ 75	+
CSc1cc(Oc2ccnc3[nH]c(=O)cnc23)ccc1NC(=O)Nc1cc(C(C)(C)C)nn1-c1ccc(OCCN2CCOCC2)cc1 [(cf), 1-(3-(tert-butyl)-1-(4-(2-morpholinoethoxy)phenyl)-1H-pyrazol-5-yl)-3-(2-(methylthio)-4-((3-oxo-3,4-dihydropyrido[2,3-b]pyrazin-8-yl)oxy)phenyl)urea]	≥ 75	−
CSc1cc(Oc2ccnc3c2CCC(=O)N3)ccc1NC(=O)Nc1cncc(C(F)(F)F)c1 [(cg), 1-(2-(methylthio)-4-((7-oxo-5,6,7,8-tetrahydro-1,8-naphthyridin-4-yl)oxy)phenyl)-3-(5-(trifluoromethyl)pyridin-3-yl)urea]	≥ 75	−
CSc1cc(Oc2ccnc(N(CCN(C)C)C(=O)OC(C)(C)C)c2)ccc1NC(=O)Nc1cc(C(C)(C)C)nn1-c1ccccc1 [(ch), Tert-Butyl (4-(4-(3-(3-(tert-butyl)-1-phenyl-1H-pyrazol-5-yl)ureido)-3-(methylthio)phenoxy)pyridin-2-yl)(2-(dimethylamino)ethyl)carbamate]	50 to 75	+
CSc1cc(Oc2ccnc3[nH]c(=O)cnc23)ccc1NC(=O)Nc1nnc(C(C)(C)C)o1 [(cj), 1-(5-(tert-butyl)-1,3,4-oxadiazol-2-yl)-3-(2-(methylthio)-4-((3-oxo-3,4-dihydropyrido[2,3-b]pyrazin-8-yl)oxy)phenyl)urea]	≥ 75	+
CSc1cc(Oc2ccnc(NCCN(C)C)c2)ccc1NC(=O)Nc1cc(C(C)(C)C)nn1-c1ccccc1 [(ck), 1-(3-(tert-butyl)-1-phenyl-1H-pyrazol-5-yl)-3-(4-((2-((2-(dimethylamino)ethyl)amino)pyridin-4-yl)oxy)-2-(methylthio)phenyl)urea Hydrochloride]	≥ 75	+
CSc1cc(Oc2ccnc3[nH]c(=O)cnc23)ccc1NC(=O)Nc1cc(C(C)(C)C)nn1-c1ccc(C)c(Cl)c1 [(cl), 1-(3-(tert-butyl)-1-(3-chloro-4-methylphenyl)-1H-pyrazol-5-yl)-3-(2-(methylthio)-4-((3-oxo-3,4-dihydropyrido[2,3-b]pyrazin-8-yl)oxy)phenyl)urea]	≥ 75	+
CSc1cc(Oc2ccnc3[nH]c(=O)cnc23)ccc1NC(=O)Nc1cc(C(C)(C)C)nn1-c1ccc(F)c(Cl)c1 [(cm), 1-(3-(tert-butyl)-1-(3-chloro-4-fluorophenyl)-1H-pyrazol-5-yl)-3-(2-(methylthio)-4-((3-oxo-3,4-dihydropyrido[2,3-b]pyrazin-8-yl)oxy)phenyl)urea]	≥ 75	+
CSc1cc(Oc2ccnc(C(=O)Nc3ccccc3)c2)ccc1NC(=O)Nc1cc(C(C)(C)C)nn1-c1ccccc1 [(co), 4-(4-(3-(3-(tert-butyl)-1-phenyl-1H-pyrazol-5-yl)ureido)-3-(methylthio)phenoxy)-N-phenylpicolinamide]	25 to 50	++
CC(C)(C)c1cc(NC(=O)Nc2ccc(Oc3ccnc4[nH]c(=O)cnc34)c(OC(F)(F)F)c2)n(-c2ccccc2)n1 [(cp), 1-(3-(tert-butyl)-1-phenyl-1H-pyrazol-5-yl)-3-(4-((3-oxo-3,4-dihydropyrido[2,3-b]pyrazin-8-yl)oxy)-3-(trifluoromethoxy)phenyl)urea]	50 to 75	+
CC(C)(C)c1cc(NC(=O)Nc2cc(Oc3ccnc4[nH]c(=O)cnc34)ccc2F)n(-c2ccccc2)n1 [(cq), 1-(3-(tert-butyl)-1-phenyl-1H-pyrazol-5-yl)-3-(2-fluoro-5-((3-oxo-3,4-dihydropyrido[2,3-b]pyrazin-8-yl)oxy)phenyl)urea]	≥ 75	++
CSc1cc(Oc2ccnc3[nH]c(=O)cnc23)ccc1NC(=O)Nc1cc(C(C)(C)C)nn1-c1ccc(OCCCN(C)C)cc1 [(cr), 1-(3-(tert-butyl)-1-(4-(3-(dimethylamino)propoxy)phenyl)-1H-pyrazol-5-yl)-3-(2-(methylthio)-4-((3-oxo-3,4-dihydropyrido[2,3-b]pyrazin-8-yl)oxy)phenyl)urea]	≥ 75	+
CC(C)(C)c1cc(NC(=O)Nc2ccc(C(=O)c3ccncc3)cc2)n(-c2ccccc2)n1 [(cs), 1-(3-(tert-butyl)-1-phenyl-1H-pyrazol-5-yl)-3-(4-isonicotinoylphenyl)urea]	25 to 50	+
CSc1cc(Oc2ccnc3c2OCC(=O)N3)ccc1NC(=O)Nc1cc(C(C)(C)C)nn1-c1ccccc1 [(ct), 1-(3-(tert-butyl)-1-phenyl-1H-pyrazol-5-yl)-3-(2-(methylthio)-4-((3-oxo-3,4-dihydro-2H-pyrido[3,2-b][1,4]oxazin-8-yl)oxy)phenyl)urea]	≥ 75	+
CC(C)(C)c1cnc(NC(=O)Nc2ccc(Oc3ccnc4c3CCC(=O)N4)c3ccccc23)s1 [(cu), 1-(5-(tert-butyl)thiazol-2-yl)-3-(4-((7-oxo-5,6,7,8-tetrahydro-1,8-naphthyridin-4-yl)oxy)naphthalen-1-yl)urea]	≥ 75	++
CCOC(=O)Nc1cc(Oc2ccc(NC(=O)Nc3cc(C(C)(C)C)nn3-c3ccccc3)c(SC)c2)ccn1 [(cv), Ethyl (4-(4-(3-(3-(tert-butyl)-1-phenyl-1H-pyrazol-5-yl)ureido)-3-(methylthio)phenoxy)pyridin-2-yl)carbamate]	≥ 75	+
CC(C)(C)c1cc(NC(=O)Nc2cccc(Oc3ccnc4[nH]c(=O)cnc34)c2F)n(-c2ccccc2)n1 [(cw), 1-(3-(tert-butyl)-1-phenyl-1H-pyrazol-5-yl)-3-(2-fluoro-3-((3-oxo-3,4-dihydropyrido[2,3-b]pyrazin-8-yl)oxy)phenyl)urea]	≥ 75	++
CSc1cc(Oc2ccnc(NC(=O)OCc3ccccc3)c2)ccc1NC(=O)Nc1cc(C(C)(C)C)nn1-c1ccccc1 [(cx), Benzyl (4-(4-(3-(3-(tert-butyl)-1-phenyl-1H-pyrazol-5-yl)ureido)-3-(methylthio)phenoxy)pyridin-2-yl)carbamate]	≥ 75	+
